Experimental findings from PubChem BioAssay AID330 (DTP/NCI, 2004) are described below.

Where “and” joins values, the source holds several entries; their conditions need not be identical. Identical values can stand only once. Inconclusive results and toxic doses are left out.

The experiment relates to P388 leukemia ip, CD2F1 mice, survival T/C. Nature of the experiment: NCI In Vivo Anticancer Drug Screen. Data for tumor model P388 Leukemia (intraperitoneal) in CD2F1 (CDF1) mice. The following applies: endpoint: median survival time, higher = longer survival. An outline of the steps:
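Mice carrying the transplanted tumor received test compound or vehicle. Survival was recorded in each group, and the value is the treated-group measurement divided by that of the vehicle-treated control group.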

The mark [1] stands for this setting: dose: 100.0 mg/kg/injection, schedule: Q04DX003 (ip), vehicle: saline with Tween-80.
Setting [2] is: dose: 100.0 mg/kg/injection, schedule: Q04DX003 (ip), vehicle: Klucel (hydroxypropylcellulose) (HPC).
The mark [3] stands for this setting: dose: 200.0 mg/kg/injection, schedule: Q04DX003 (ip), vehicle: Klucel (hydroxypropylcellulose) (HPC).
Setting [4] is: dose: 400.0 mg/kg/injection, schedule: Q04DX003 (ip), vehicle: Klucel (hydroxypropylcellulose) (HPC).

For `COP(=O)(CS(=O)(=O)Oc1ccc(S(C)(=O)=O)cc1)OC`, the T/C (dose: 3.12 mg/kg/injection, schedule: Q01DX005 (ip), vehicle: Klucel (hydroxypropylcellulose) (HPC)) was 97 % of control; the T/C (dose: 6.25 mg/kg/injection, schedule: Q01DX005 (ip), vehicle: Klucel (hydroxypropylcellulose) (HPC)) was 100 % of control; the T/C (dose: 12.5 mg/kg/injection, schedule: Q01DX005 (ip), vehicle: Klucel (hydroxypropylcellulose) (HPC)) is 99 % of control; the T/C (dose: 25.0 mg/kg/injection, schedule: Q01DX005 (ip), vehicle: Klucel (hydroxypropylcellulose) (HPC)) was 97 % of control.

Consider `COC(=O)C1(C)CCCC2(C)c3cc(OC)ccc3C3(CC12)OCCO3` (stereo unspecified), for which the T/C (dose: 5.0 mg/kg/injection, schedule: Q01DX009 (ip), vehicle: saline) is 98 % of control; the T/C (dose: 10.0 mg/kg/injection, schedule: Q01DX009 (ip), vehicle: saline) was 95 % of control; the T/C (dose: 20.0 mg/kg/injection, schedule: Q01DX009 (ip), vehicle: saline) is 89 % of control.

Consider `COc1ccc(-c2c3ccc(OC)cc3n3ccccc23)cc1`, for which the T/C runs as follows: (dose: 100.0 mg/kg/injection, schedule: Q01DX002 (ip), vehicle: saline with Tween-80) 99 % of control; (dose: 200.0 mg/kg/injection, schedule: Q01DX002 (ip), vehicle: saline with Tween-80) 97 % of control; (dose: 400.0 mg/kg/injection, schedule: Q01DX002 (ip), vehicle: saline with Tween-80) 107 % of control.

For `COCC12CN(C)C3C4C(OC)C1C3(C(OC)CC2O)C1CC2(O)C(OC)C(O)C4(OC(C)=O)C1C2OC(=O)c1ccccc1` (stereo unspecified), the T/C by setting is: (dose: 0.09 mg/kg/injection, schedule: Q01DX005 (ip), vehicle: Klucel (hydroxypropylcellulose) (HPC)) 100 % of control; (dose: 12.0 micrograms/kg/injection, schedule: Q01DX005 (ip), vehicle: Klucel (hydroxypropylcellulose) (HPC)) 91 % of control; (dose: 24.0 micrograms/kg/injection, schedule: Q01DX005 (ip), vehicle: Klucel (hydroxypropylcellulose) (HPC)) 98 % of control and 101 % of control; (dose: 48.0 micrograms/kg/injection, schedule: Q01DX005 (ip), vehicle: Klucel (hydroxypropylcellulose) (HPC)) 100 % of control and 101 % of control.

Regarding `Cc1cn(C2OC(CO)C(O)C2O)c(=O)nc1N` (stereo unspecified), the T/C by setting is: (dose: 25.0 mg/kg/injection, schedule: Q01DX005 (ip), vehicle: water) 104 % of control; (dose: 50.0 mg/kg/injection, schedule: Q01DX005 (ip), vehicle: water) 101 % of control; (dose: 100.0 mg/kg/injection, schedule: Q01DX005 (ip), vehicle: water) 100 % of control; (dose: 200.0 mg/kg/injection, schedule: Q01DX005 (ip), vehicle: water) 96 % of control.

Take `SC1(S)CCCN(Cc2ccccc2)C1`: the T/C (dose: 25.0 mg/kg/injection, schedule: Q01DX005 (ip), vehicle: saline) is 105 % of control; the T/C (dose: 50.0 mg/kg/injection, schedule: Q01DX005 (ip), vehicle: saline) is 108 % of control; the T/C (dose: 100.0 mg/kg/injection, schedule: Q01DX005 (ip), vehicle: saline) was 103 % of control; the T/C (dose: 200.0 mg/kg/injection, schedule: Q01DX005 (ip), vehicle: saline) is 105 % of control.

Turning to `CCCCCCCCCCCCCCCC(=O)N(CCCCN(C(=O)CCCCCCCCCCCCCCC)C(C)CCCN(CC)CC)C(C)CCCN(CC)CC` (stereo unspecified), the T/C is, setting by setting: (dose: 25.0 mg/kg/injection, schedule: Q01DX009 (ip), vehicle: other) 93 % of control; (dose: 50.0 mg/kg/injection, schedule: Q01DX009 (ip), vehicle: other) 93 % of control.

For the compound `O=C(c1ccccc1)N1C=CC(=Cc2ccccc2)C=C1`, the T/C runs as follows: (dose: 1.56 mg/kg/injection, schedule: Q01DX009 (ip), vehicle: Klucel (hydroxypropylcellulose) (HPC)) 102 % of control; (dose: 3.12 mg/kg/injection, schedule: Q01DX009 (ip), vehicle: Klucel (hydroxypropylcellulose) (HPC)) 106 % of control; (dose: 6.25 mg/kg/injection, schedule: Q01DX009 (ip), vehicle: Klucel (hydroxypropylcellulose) (HPC)) 101 % of control and 96 % of control.

In the case of `O=c1[nH]c(=O)c2n[nH]nc2[nH]1`, the T/C by setting is: (dose: 100.0 mg/kg/injection, schedule: Q01DX009 (ip), vehicle: saline with Tween-80) 86 % of control; under setting [1], 90 % of control; (dose: 200.0 mg/kg/injection, schedule: Q01DX009 (ip), vehicle: saline with Tween-80) 100 % of control; (dose: 200.0 mg/kg/injection, schedule: Q04DX003 (ip), vehicle: saline with Tween-80) 90 % of control; (dose: 400.0 mg/kg/injection, schedule: Q01DX009 (ip), vehicle: saline with Tween-80) 95 % of control; (dose: 400.0 mg/kg/injection, schedule: Q04DX003 (ip), vehicle: saline with Tween-80) 100 % of control.

With `c1ccc(CNc2ncccn2)nc1`, the T/C by setting is: (dose: 50.0 mg/kg/injection, schedule: Q01DX005 (ip), vehicle: saline with Tween-80) 100 % of control; (dose: 100.0 mg/kg/injection, schedule: Q01DX005 (ip), vehicle: saline with Tween-80) 96 % of control; (dose: 200.0 mg/kg/injection, schedule: Q01DX005 (ip), vehicle: saline with Tween-80) 100 % of control.

Regarding `C[CH2][GeH][CH2]C.C[CH2][Ge]([CH2]C)[CH2]C`, the T/C was 93 % of control (dose: 50.0 mg/kg/injection, schedule: Q01DX009 (ip), vehicle: saline) and 90 % of control (dose: 100.0 mg/kg/injection, schedule: Q01DX009 (ip), vehicle: saline).

`C/C(=N\N=C(/[Se])N1CCN(c2ccc(F)cc2)CC1)c1ccccn1`: the T/C reads like this: under setting [2], 101 % of control; under setting [3], 108 % of control; under setting [4], 100 % of control.

As for `[NH-]CC[NH-].[NH-]CC[NH-].[NH-]CC[NH-].[Ni]`, the T/C runs as follows: (dose: 6.25 mg/kg/injection, schedule: Q01DX009 (ip), vehicle: saline) 90 % of control; (dose: 12.5 mg/kg/injection, schedule: Q01DX009 (ip), vehicle: saline) 90 % of control.

Consider `CCCCNC(=O)CCC(NS(=O)(=O)c1ccc(C)cc1)C(=O)NCCCC` (stereo unspecified), for which the T/C was 93 % of control (dose: 50.0 mg/kg/injection, schedule: Q01DX005 (ip), vehicle: Klucel (hydroxypropylcellulose) (HPC)); 100 % of control (dose: 100.0 mg/kg/injection, schedule: Q01DX005 (ip), vehicle: Klucel (hydroxypropylcellulose) (HPC)); 93 % of control (dose: 200.0 mg/kg/injection, schedule: Q01DX005 (ip), vehicle: Klucel (hydroxypropylcellulose) (HPC)).

For `O=S(=O)(O)CC(O)CNC(CO)(CO)CO` (stereo unspecified), the T/C is 104 % of control (dose: 60.0 mg/kg/injection, schedule: Q01DX005 (ip), vehicle: saline); 98 % of control (dose: 120.0 mg/kg/injection, schedule: Q01DX005 (ip), vehicle: saline); 104 % of control (dose: 240.0 mg/kg/injection, schedule: Q01DX005 (ip), vehicle: saline).

Regarding `NC(=O)Cc1nn[nH]n1`, the T/C is 106 % of control under setting [2], 103 % of control under setting [3] and 107 % of control under setting [4].

On to `O=C1OC(Nc2ccccc2)C(Cl)=C1Cl` (stereo unspecified), for which the T/C is, setting by setting: (dose: 60.0 mg/kg/injection, schedule: Q01DX005 (ip), vehicle: saline with Tween-80) 102 % of control; (dose: 120.0 mg/kg/injection, schedule: Q01DX005 (ip), vehicle: saline with Tween-80) 104 % of control; (dose: 240.0 mg/kg/injection, schedule: Q01DX005 (ip), vehicle: saline with Tween-80) 103 % of control.

Consider `COC(=O)NC(=S)Nc1nnc(C)s1`, for which the T/C by setting is: (dose: 25.0 mg/kg/injection, schedule: Q04DX003 (ip), vehicle: saline with Tween-80) 103 % of control; (dose: 50.0 mg/kg/injection, schedule: Q04DX003 (ip), vehicle: saline with Tween-80) 256 % of control; under setting [1], 105 % of control.

Regarding `CC(=O)O[C@@H]1C(C(=O)[C@@H](C)C(C)C)OCOC1C1CC(=O)NC(=O)C1` (stereo partly specified), the T/C was 100 % of control (dose: 0.01 mg/kg/injection, schedule: Q01DX009 (ip), vehicle: distilled water + alcohol); 100 % of control (dose: 0.03 mg/kg/injection, schedule: Q01DX009 (ip), vehicle: distilled water + alcohol); 93 % of control (dose: 0.06 mg/kg/injection, schedule: Q01DX009 (ip), vehicle: distilled water + alcohol); 98 % of control (dose: 0.12 mg/kg/injection, schedule: Q01DX009 (ip), vehicle: distilled water + alcohol).

As to `C[N+]1(C)CCCC(O)(C(=O)c2ccccc2)C1` (stereo unspecified), the T/C is 98 % of control (dose: 100.0 mg/kg/injection, schedule: Q01DX001 (ip), vehicle: saline) and 100 % of control (dose: 200.0 mg/kg/injection, schedule: Q01DX001 (ip), vehicle: saline).

`O=NN(Cc1ccc(Cl)cc1)C(C(=O)O)c1ccccc1` (stereo unspecified): the T/C was 103 % of control (dose: 60.0 mg/kg/injection, schedule: Q01DX005 (ip), vehicle: Klucel + Tween-80) and 103 % of control (dose: 120.0 mg/kg/injection, schedule: Q01DX005 (ip), vehicle: Klucel + Tween-80).
